Measured values published in US10265419B2, “Intraoperative determination of nerve location” (Novadaq Technologies ULC, priority 2005, dated 2019).

Tests used:
cavernous nerves = experiment: NIRF imaging of cavernous nerves after intracrural ICG injection in rats; assay type: in vivo
Description: The area was examined for retrograde axonal transport at different time points, using a NIRF intraoperative imaging system (SPY®, Novadaq Technologies Inc., Mississauga, Ontario, Canada) that illuminates tissues with a 805 nm laser and captures images with a camera sensitive to infrared fluorescence. Near infrared microscopy and conventional histology were used to confirm the macroscopically identified fluorescent structures. […] (These were specific time points at which examinations were made. […] The fluorescent nerves were then excised.

[1] = cited from earlier work

In the case of `CC1(C)C(/C=C/C=C/C=C/C=C2\N(CCCCS(=O)(=O)O)c3ccc4ccccc4c3C2(C)C)=[N+](CCCCS(=O)(=O)[O-])c2ccc3ccccc3c21` [ICG, indocyanine green], the “time post-injection of highest fluorescence intensity” value (cavernous nerves; NIRF imaging) is given as 18 and at 24, the “fluorescence of the cavernous nerves at longer post-injection periods” value (cavernous nerves; e.g. 30 days post-injection) is given as “not detectable” and the “metabolism in the body” value ([1]; after intravenous injection) is given as “not metabolized in the body”. For the same compound, the route of excretion ([1]; after intravenous injection) was “excreted exclusively by the liver” and the “reabsorption from the intestine / enterohepatic recirculation” value ([1]; in vivo) was “not reabsorbed from the intestine and does not undergo enterohepatic recirculation”.
